Reference: patent US8933039B2 (NPS Pharmaceuticals, Inc., priority 1995, dated 2015)
Non-standard residues stand in square brackets, D forms with d. Residues, ends and D or L forms follow the SMILES beside them. Nva = CCC[C@H](N)C(=O)O

What was measured:
CD1 mice = assay: Intestinotrophic activity assessment: small bowel weight in mice; assay type: in vivo; conditions: for % Increase in small bowel weight: CD1 mice, 2.5 μg peptide s.c. b.i.d. in PBS, sacrificed 10 or 14 days, relative to vehicle only; for intestinotrophic activity compared with the naturally occurring molecule / rGLP-2 (in words): comment on Table 1, CD1 mice; for % Activity (small bowel inducing activity relative to native rat GLP-2(1-33) = 100%): mice, as Example 4
Method in brief: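 Activity expressed against native rat GLP-2(1-33) (100%) and as percent bowel-weight change over vehicle controls, from excised pylorus-to-cecum small bowel. Dosing: 2.5 μg peptide subcutaneously twice daily to 6-week female CD1 mice (n=3-4), killed at day 10 or 14 after fasting ≥20 h.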

[1] = test system: Fisher 344 wild-type rats; assay: Small bowel weight in Fisher 344 wild-type rats; assay type: in vivo; conditions: 20 μg b.i.d. s.c. in PBS, over vehicle control
Description: (§1) In the following experiments the Sprague-Dawley rats were injected s.c. twice daily with rGLP-2 in the Gelatin formulation. The Fisher rats were injected s.c. twice daily with GLP-2 peptides (both rGLP-2, and rGLP-2 analogs) in PBS.

DPP-IV [2] = biological target: T1, DPP-IV (Homo sapiens, UniProt P27487); assay: Assay for resistance to dipeptidyl peptidase IV (RP-HPLC of cleavage product); conditions: human, isolated human placental DPP-IV (dipeptidyl peptidase IV)
Description: (§3) The mixture was incubated at 37° C. in a circulating water bath for 24 hours. The incubation was quenched by the addition of 50 μl of a solution of diprotin A prepared at a concentration of 4 mg/ml in PBS. Each peptide was tested in duplicate.
(§4) Each sample was analyzed by reverse-phase (RP) HPLC as follows: 90 μl of the quenched incubation mixture was injected onto a Rainin Dynamax 300 Å, C18, 5 micron, 4.6×250 millimeter column. The samples were eluted with 0.1% trifluoroacetic acid (TFA) in water modified with 0.1% acetonitrile using a linear gradient and a flow rate of 1 ml per minute. Sample components were detected at 214 nanometers (nm). The extent of cleavage was measured by relative integration of the peak corresponding to the cleavage product compared to that of the remaining undigested parent peptide.

human placental DPP-IV = human placental DPP-IV (Homo sapiens, UniProt P27487); assay: as above; conditions: human placental DPP-IV 0.125 mU, peptide 0.2 mg/ml, PBS pH 7.4, 37° C.
Description: as §3, §4

Fisher 334 DPP-IV-rats = assay: Small bowel weight in DPP-IV deficient Fisher rats; assay type: in vivo; conditions: 20 μg b.i.d. s.c. in PBS, vs vehicle
Description: (§2) The following experiments were conducted to confirm that the increase in bowel weight seen in experimental animals treated with DPP-IV resistant analogs of GLP-2, compared with animals treated with wild-type GLP-2, was attributable in part to the DPP-IV resistant nature of the molecules. This experiment took advantage of the availability of a DPP-IV deficient rat strain, Fisher 334 DPP-IV-rats. The effect of rGLP-2 injections on small bowel weight in the Fisher DPP-IV deficient rats was compared to that in normal Sprague-Dawley rats.
as §1

Sprague-Dawley rats = assay: Small bowel weight in normal Sprague-Dawley rats; assay type: in vivo; conditions: gelatin formulation, vs vehicle
Description: as §2, §1

DPP-IV [3] = biological target: T1, DPP-IV; assay: in vitro; conditions: isolated enzyme dpp iv, pH 7.4, % Cleaved by DPP-IV
Description: as §3, §4

[4] = test system: dipeptidyl peptidase IV (DPP-IV); assay: human placental DPP-IV (Calbiochem), 0.125 mU, added to test peptide in PBS at pH 7.4; conditions: 37° C., up to 24 hours
[5] = pH 7.4, % Cleaved by DPP-IV, as Example 3: human placental DPP-IV, 37° C., PBS pH 7.4

T1 sequence (P27487 whole entry): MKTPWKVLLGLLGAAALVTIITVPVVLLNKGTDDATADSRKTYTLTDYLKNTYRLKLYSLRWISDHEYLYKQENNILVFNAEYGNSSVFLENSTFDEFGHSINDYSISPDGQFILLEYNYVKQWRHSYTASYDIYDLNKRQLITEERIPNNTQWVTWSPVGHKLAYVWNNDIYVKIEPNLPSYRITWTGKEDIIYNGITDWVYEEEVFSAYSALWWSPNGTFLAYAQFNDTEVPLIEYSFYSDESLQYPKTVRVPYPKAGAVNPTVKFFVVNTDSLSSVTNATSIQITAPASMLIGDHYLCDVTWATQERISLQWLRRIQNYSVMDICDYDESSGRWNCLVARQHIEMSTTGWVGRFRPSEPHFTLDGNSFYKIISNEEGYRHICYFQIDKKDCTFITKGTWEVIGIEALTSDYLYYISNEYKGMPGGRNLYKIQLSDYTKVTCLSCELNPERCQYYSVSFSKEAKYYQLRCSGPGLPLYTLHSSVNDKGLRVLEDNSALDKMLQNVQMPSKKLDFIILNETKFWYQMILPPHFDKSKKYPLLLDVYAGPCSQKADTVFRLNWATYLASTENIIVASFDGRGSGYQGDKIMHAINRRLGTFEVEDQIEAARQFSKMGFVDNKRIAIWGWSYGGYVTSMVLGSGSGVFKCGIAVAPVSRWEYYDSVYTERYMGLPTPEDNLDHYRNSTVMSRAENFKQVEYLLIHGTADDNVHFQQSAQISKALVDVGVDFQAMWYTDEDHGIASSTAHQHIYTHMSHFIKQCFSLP
human placental DPP-IV, sequence (P27487 whole entry): as above

Row | Molecule | % Increase in small bowel weight (CD1 mice) | % Activity (small bowel inducing activity relative to native rat GLP-2(1-33) = 100%) (CD1 mice) | metabolised at 24 h, 0.19 mg/ml (DPP-IV [2]; [5]) | not cleaved [4] | other results
1 | H-HGDGSFSDEMNTILDNLATRDFINWLIQTKITD-OH [[Gly2]ratGLP-2(1-33)] | 70% | 196% | 0% | – | intestinotrophic activity compared with the naturally occurring molecule / rGLP-2 (in words) (CD1 mice): greatly enhanced; increase in small bowel weight [1]: 75-85%; cleaved by DPP-IV after the 24 hour incubation (human placental DPP-IV): No cleavage products were detected; increase in % change in small bowel weight (Fisher 334 DPP-IV-rats): 50-60%
2 | H-HADGSFSDEMNTILDNLATRDFINWLIQTKITD-OH [ratGLP-2(1-33), reference compound] | 45% | 100% | 58% | – | metabolised at 24 h, 0.19 mg/ml (DPP-IV [2]; pH 7.4, cleaved by DPP-IV after the 24 hour incubation, human placental DPP-IV 0.125 mU, peptide 0.2 mg/ml, PBS pH 7.4, 37° C.): 22%; increase in % change in small bowel weight (Fisher 334 DPP-IV-rats): 40-50%; % change in small bowel weight (Sprague-Dawley rats; 2.5 μg b.i.d. s.c.): no % change; % change in small bowel weight (Sprague-Dawley rats; 25 μg b.i.d. s.c.): no % change
3 | CC[C@H](C)[C@H](NC(=O)[C@H](Cc1ccccc1)NC(=O)[C@H](CC(=O)O)NC(=O)[C@H](CCCNC(=N)N)NC(=O)[C@H](C)NC(=O)[C@H](C)NC(=O)[C@H](CC(C)C)NC(=O)[C@H](CC(N)=O)NC(=O)[C@H](CC(=O)O)NC(=O)[C@H](CC(C)C)NC(=O)[C@@H](NC(=O)[C@@H](NC(=O)[C@H](CC(N)=O)NC(=O)[C@H](CCSC)NC(=O)[C@H](CCC(=O)O)NC(=O)[C@H](CC(=O)O)NC(=O)[C@H](CO)NC(=O)[C@H](Cc1ccccc1)NC(=O)[C@H](CO)NC(=O)CNC(=O)[C@H](CC(=O)O)NC(=O)CNC(=O)[C@@H](N)Cc1c[nH]cn1)[C@@H](C)O)[C@@H](C)CC)C(=O)N[C@@H](CC(N)=O)C(=O)N[C@@H](Cc1c[nH]c2ccccc12)C(=O)N[C@@H](CC(C)C)C(=O)N[C@H](C(=O)N[C@@H](CCC(N)=O)C(=O)N[C@H](C(=O)N[C@@H](CCCCN)C(=O)N[C@H](C(=O)N[C@H](C(=O)N[C@@H](CC(=O)O)C(=O)O)[C@@H](C)O)[C@@H](C)CC)[C@@H](C)O)[C@@H](C)CC [[Gly2]hGLP-2(1-33)] | 59% | 300% | – | – | metabolised at 24 h, 0.19 mg/ml (DPP-IV [3]): 0%; intestinotrophic activity compared with the naturally occurring molecule / rGLP-2 (in words) (CD1 mice): substantially increased
4 | CC[C@H](C)[C@H](NC(=O)[C@H](Cc1ccccc1)NC(=O)[C@H](CC(=O)O)NC(=O)[C@H](CCCNC(=N)N)NC(=O)[C@@H](NC(=O)[C@H](C)NC(=O)[C@H](CC(C)C)NC(=O)[C@H](CC(N)=O)NC(=O)[C@H](CC(=O)O)NC(=O)[C@H](CC(C)C)NC(=O)[C@@H](NC(=O)[C@@H](NC(=O)[C@H](CC(N)=O)NC(=O)[C@H](CCSC)NC(=O)[C@H](CCC(=O)O)NC(=O)[C@H](CC(=O)O)NC(=O)[C@H](CO)NC(=O)[C@H](Cc1ccccc1)NC(=O)[C@H](CO)NC(=O)CNC(=O)[C@H](CC(=O)O)NC(=O)[C@@H](C)NC(=O)[C@@H](N)Cc1c[nH]cn1)[C@@H](C)O)[C@@H](C)CC)[C@@H](C)O)C(=O)N[C@@H](CC(N)=O)C(=O)N[C@@H](Cc1c[nH]c2ccccc12)C(=O)N[C@@H](CC(C)C)C(=O)N[C@H](C(=O)N[C@@H](CCC(N)=O)C(=O)N[C@H](C(=O)N[C@@H](CCCCN)C(=O)N[C@H](C(=O)N[C@H](C(=O)N[C@@H](CC(=O)O)C(=O)O)[C@@H](C)O)[C@@H](C)CC)[C@@H](C)O)[C@@H](C)CC [[DAla2]ratGLP-2(1-33)] (H-H[dA]DGSFSDEMNTILDNLATRDFINWLIQTKITD-OH) | 86% | 210% | 0% | – | cleaved by DPP-IV after the 24 hour incubation (human placental DPP-IV): No cleavage products were detected
5 | [Nval2]hGLP-2(1-33) (H-H[Nva]DGSFSDEMNTILDNLAARDFINWLIQTKITD-OH; SMILES CCC[C@H](NC(=O)[C@@H](N)Cc1c[nH]cn1)C(=O)N[C@@H](CC(=O)O)C(=O)NCC(=O)N[C@@H](CO)C(=O)N[C@@H](Cc1ccccc1)C(=O)N[C@@H](CO)C(=O)N[C@@H](CC(=O)O)C(=O)N[C@@H](CCC(=O)O)C(=O)N[C@@H](CCSC)C(=O)N[C@@H](CC(N)=O)C(=O)N[C@H](C(=O)N[C@H](C(=O)N[C@@H](CC(C)C)C(=O)N[C@@H](CC(=O)O)C(=O)N[C@@H](CC(N)=O)C(=O)N[C@@H](CC(C)C)C(=O)N[C@@H](C)C(=O)N[C@@H](C)C(=O)N[C@@H](CCCNC(=N)N)C(=O)N[C@@H](CC(=O)O)C(=O)N[C@@H](Cc1ccccc1)C(=O)N[C@H](C(=O)N[C@@H](CC(N)=O)C(=O)N[C@@H](Cc1c[nH]c2ccccc12)C(=O)N[C@@H](CC(C)C)C(=O)N[C@H](C(=O)N[C@@H](CCC(N)=O)C(=O)N[C@H](C(=O)N[C@@H](CCCCN)C(=O)N[C@H](C(=O)N[C@H](C(=O)N[C@@H](CC(=O)O)C(=O)O)[C@@H](C)O)[C@@H](C)CC)[C@@H](C)O)[C@@H](C)CC)[C@@H](C)CC)[C@@H](C)CC)[C@@H](C)O) | – | – | – | 0% cleaved by DPP-IV | –
6 | [Arg-2,Arg-1]ratGLP-2(2-33) | – | – | – | 0% cleaved by DPP-IV | –
7 | Ac-ratGLP-2(1-33) (Ac-HADGSFSDEMNTILDNLATRDFINWLIQTKITD-OH) | – | – | – | 0% cleaved by DPP-IV | –
